Patent US20250263376A1, “(E)-N-CINNAMOYLAMINOALKANOLS WITH MELANOGENESIS INHIBITORY ACTIVITY” (Uniwersytet Jagiellonski, priority 2024, published 2025)

How the values were obtained:
[1] = test system: tyrosinase; details: literature [6,7]; cited from earlier work
[2] = molecular target: T1, tyrosinase from mushroom (Agaricus bisporus, UniProt C7FF04); test: Inhibition of commercial mushroom tyrosinase, substrate L-DOPA; assay type: biochemical; details: 500 μM; read-out: Tyrosinase inhibition with L-DOPA [%]
T1 sequence (C7FF04 2-392): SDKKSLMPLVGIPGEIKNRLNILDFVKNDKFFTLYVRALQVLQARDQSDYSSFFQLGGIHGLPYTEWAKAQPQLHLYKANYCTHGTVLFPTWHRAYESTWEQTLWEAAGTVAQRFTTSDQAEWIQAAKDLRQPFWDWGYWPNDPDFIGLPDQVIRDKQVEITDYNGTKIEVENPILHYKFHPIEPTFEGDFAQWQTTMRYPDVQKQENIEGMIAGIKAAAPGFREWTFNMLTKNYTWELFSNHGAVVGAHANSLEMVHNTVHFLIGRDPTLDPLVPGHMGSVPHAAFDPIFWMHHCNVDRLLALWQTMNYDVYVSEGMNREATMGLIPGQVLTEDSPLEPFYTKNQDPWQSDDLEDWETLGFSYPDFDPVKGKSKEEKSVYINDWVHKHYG
T1 sequence (G1K3P4 entry or part of it, further chain): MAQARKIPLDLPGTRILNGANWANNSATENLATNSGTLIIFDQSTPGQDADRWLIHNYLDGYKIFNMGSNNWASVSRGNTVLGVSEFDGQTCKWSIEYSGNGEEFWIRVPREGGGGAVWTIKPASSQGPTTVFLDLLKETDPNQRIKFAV
Description: (§1) Studies on the Inhibition of the Activity of Commercial Tyrosinase from Mushroom (Sigma: T3824)
(§2) The following substrates were used for the enzymatic reaction: L-tyrosine and L-3,4-dihyroxyphenylalanine (L-DOPA). Both substrates were used in independent experiments. According to the literature, the use of L-DOPA enables the assessment of tyrosinase diphenolase activity, and L-tyrosine—the tyrosinase monophenolase activity. The determinations were performed in 96-well plates, in each well there was placed: 170 μL or 127.5 μL of 50 mM phosphate buffer (pH=6.8) with tyrosinase (1U/well or 3U/well) and 10 μL of a solution of the tested compound in DMSO (the final concentration in the well was 500 μM, 250 μM or 125 μM). The negative control used 10 u L of pure solvent (DMSO). To initiate the reaction, an appropriate substrate was added: L-tyrosine (62.5 μL of solution in phosphate buffer) or L-DOPA (20 μL of solution in phosphate buffer). After a 25-minute incubation, the absorbance was measured at 475 nm using a microplate reader. The percentage of inhibition of tyrosinase activity was calculated using the formula: [(AC−AT)/[…], where AC—is the absorbance of the negative control, AT—is the absorbance of the sample containing the tested compound.

[3] = test system: S. typhimurium TA1537; test: Ames microplate test, TA1537; assay type: cell-based, Salmonella typhimurium
Description: (§3) Bacteria were grown overnight in growth medium.

[4] = test system: S. typhimurium TA1535; test: Ames microplate test, TA1535;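 also: bacteria exposed 90 min at 37 °C in exposure medium, then 48 h in indicator medium in 384-well plates, yellow (revertant) wells counted per condition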
[5] = test system: CHO-K1 cells; test: Cytotoxicity (MTT) in CHO-K1 cells before the micronucleus test; assay type: cell-based, Chinese hamster; details: 24 hours
Description: The assay was performed using a Chinese hamster ovary cell line (CHO-K1) purchased from the American Type Culture Collection (ATCC). The cells were cultured in F-12K medium with the addition of 10% fetal bovine serum (FBS) and antibiotics (streptomycin/penicillin) in an incubator at 37° C. and 5% CO2 concentration). Before the actual micronucleus test, a cytotoxicity assessment was performed to ensure that the actual test was performed only at safe concentrations. For this purpose, cells were transferred to 96-well plates and incubated with the tested compounds for 24 hours. After this time, the MTT test was performed and cell viability was assessed in comparison to the control group (cells cultured with DMSO at the same concentration as in the case of the tested samples).

[6] = Lipophilicity coefficient RM0 by reversed phase thin layer chromatography; assay type: physicochemical; details: RP-18 TLC, methanol/phosphate buffer pH=7.4
Description: Confirmation of the identity and purity of the obtained compounds consisted in the registration and interpretation of 1H NMR and 13C NMR spectra (the spectra were recorded using an ECZR 500 MHZ (JEOL) series FT-NMR spectrophotometer), as well as the registration and interpretation of LC-MS spectra (the spectra were recorded using Acquita UPLC system (Waters) coupled with a Waters TQD mass spectrometer). The melting point was measured using the open capillary method in the IA9300 device (Electrothermal). The lipophilicity coefficient RM0 was determined by reversed phase thin layer chromatography. In the study, aluminum plates 20×20 cm covered with modified silica gel RP-18 F254 (Merck) were used as the solid phase. The mobile phase consisted of solutions of methanol and 100 mM phosphate buffer (pH=7.4), characterized by a variable methanol content ranging from 95 to 65% (v/v). The tested compounds were dissolved in methanol to obtain solutions with a concentration of 1 mg/mL. Then, […] of the solutions prepared in this way were transferred to the starting line on aluminum plates, which were then placed in chromatographic chambers previously saturated with mobile phase vapors for at least 1 hour. All activities, including the development of chromatograms, were carried out at room temperature. After developing the chromatograms to approximately 1-2 cm from the end of the plate, the plates were dried and then the distance traveled by the tested compounds was visualized under UV light (λ=254 nm). The experiment was performed in duplicate for the specified conditions. For all samples, Rf was calculated according to the formula Rf=a/b, where a—the distance traveled by the tested compound, b—the distance traveled by the mobile phase. Then, the RM parameter was calculated for all samples according to the formula RM=log (1/Rf−1), obtaining a linear relationship between the RM values and the methanol concentration in the mobile phase. The log P coefficient was also calculated using the following computer programs: ACD/ChemSketch 2020.1.2 and ChemDraw 20.0.0.41.

[7] = test system: E. coli WP2; test: Ames microplate test, E. coli WP2;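 also: bacteria exposed to compound for 90 min at 37 °C in 24-well plates, then transferred with indicator medium to 384-well plates and incubated 48 h before yellow well counting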
[8] = test system: S. typhimurium TA98; test: Ames microplate test, TA98; assay type: cell-based, Salmonella typhimurium
Description: as §3

[9] = molecular target: T1, tyrosinase from mushroom; test: Inhibition of commercial mushroom tyrosinase, substrate L-tyrosine; assay type: biochemical; details: 500 μM; read-out: Tyrosinase inhibition with L-tyrosine [%]
Description: as §1, §2

[10] = test system: B16-F10 murine melanoma cell line; test: Cytotoxicity (MTT) in B16-F10 murine melanoma cells; assay type: cell-based; details: 48 h
Description: Cytotoxicity Assessment in the B16-F10 Murine Melanoma Cell Line (ATTC CRL-6745)—Preliminary Safety Assessment for Subsequent Studies
In order to determine safe doses of compounds for testing the inhibition of melanogenesis in a murine melanoma cell line, cytotoxicity tests were performed. Cytotoxicity was determined by the colorimetric method using MTT ([3-(4,5-dimethyl-2-thiazolyl)-2,5-diphenyl-2H-tetrazolium bromide, Sigma M5655). For this purpose, cells were transferred to 96-well plates in an amount of 5000/well. After 24 h of culture in an incubator in F10-Ham medium with 1% FBS, the tested compounds at various concentrations were added to the wells together with fresh medium. DMSO was added to the medium in a negative control. The MTT test was performed after further culture for 48 h. Then the medium was removed and the formed formazan crystals were dissolved in DMSO. The absorbance was measured at 570 nm in a plate reader and the result was compared to the control (DMSO), which was 100%. The percentage of viability was calculated using the formula: [AT/AC*100], where AT is the absorbance of the test sample, AC—absorbance of the control sample.

[11] = test system: S. typhimurium TA100; test: Ames microplate test, TA100; assay type: cell-based, Salmonella typhimurium
[12] = test system: tyrosinase; details: literature [11], cited from earlier work
[13] = test system: human reconstructed epidermis Episkin; test: Skin irritation test in reconstructed human epidermis Episkin; assay type: cell-based; details: 15 min exposure
From the text: Skin Irritation Tests in a Reconstructed Human Epidermis Model (Episkin™)

O=C(O)C=Cc1ccccc1 [Cinnamic acid]
mechanism of tyrosinase inhibition [1]: non-competitive inhibitor

CCC(O)CNC(=O)/C=C/c1ccc(Cl)cc1 (centres unmarked) [Compound A-67, (2E)-3-(4-chlorophenyl)-N-(2-hydroxybutyl)prop-2-enamide]
inhibition at 500 µM [2]: 60.8 ± 1.99% | Increase in the number of yellow wells compared to the reference level, TA1537 ([3]; 0.5 mM, + S9): 1.00 | Increase in the number of yellow wells compared to the reference level, TA1537 ([3]; 0.5 mM, without S9): 0.00 | Increase in the number of yellow wells compared to the reference level, TA1537 ([3]; 1.0 mM, + S9): 1.33 | Increase in the number of yellow wells compared to the reference level, TA1537 ([3]; 1.0 mM, without S9): 0.18 | Increase in the number of yellow wells compared to the reference level, TA1537 ([3]; 2.0 mM, + S9): 0.00 | Increase in the number of yellow wells compared to the reference level, TA1537 ([3]; 2.0 mM, without S9): 0.82 | Increase in the number of yellow wells compared to the reference level, TA1535 ([4]; 0.5 mM, + S9): 0.27 | Increase in the number of yellow wells compared to the reference level, TA1535 ([4]; 0.5 mM, without S9): 0.30 | Increase in the number of yellow wells compared to the reference level, TA1535 ([4]; 1.0 mM, + S9): 0.54 | Increase in the number of yellow wells compared to the reference level, TA1535 ([4]; 1.0 mM, without S9): 0.45 | Increase in the number of yellow wells compared to the reference level, TA1535 ([4]; 2.0 mM, + S9): 0.13 | Increase in the number of yellow wells compared to the reference level, TA1535 ([4]; 2.0 mM, without S9): 1.04 | % Viability [mean], CHO-K1 ([5]; 100 μM): 96.0% | % Viability [mean], CHO-K1 ([5]; 150 μM): 90.3% | % Viability [mean], CHO-K1 ([5]; 200 μM): 84.0% | RM0 [6]: 2.46 | Increase in the number of yellow wells compared to the reference level, E. coli WP2 ([7]; 0.5 mM, + S9): 0.83 | Increase in the number of yellow wells compared to the reference level, E. coli WP2 ([7]; 0.5 mM, without S9): 0.50 | Increase in the number of yellow wells compared to the reference level, E. coli WP2 ([7]; 1.0 mM, + S9): 0.42 | Increase in the number of yellow wells compared to the reference level, E. coli WP2 ([7]; 1.0 mM, without S9): 1.00 | Increase in the number of yellow wells compared to the reference level, E. coli WP2 ([7]; 2.0 mM, + S9): 1.42 | Increase in the number of yellow wells compared to the reference level, E. coli WP2 ([7]; 2.0 mM, without S9): 0.83 | Increase in the number of yellow wells compared to the reference level, TA98 ([8]; 0.5 mM, + S9): 0.31 | Increase in the number of yellow wells compared to the reference level, TA98 ([8]; 0.5 mM, without S9): 0.27 | Increase in the number of yellow wells compared to the reference level, TA98 ([8]; 1.0 mM, + S9): 0.94 | Increase in the number of yellow wells compared to the reference level, TA98 ([8]; 1.0 mM, without S9): 1.07 | Increase in the number of yellow wells compared to the reference level, TA98 ([8]; 2.0 mM, + S9): 1.04 | Increase in the number of yellow wells compared to the reference level, TA98 ([8]; 2.0 mM, without S9): 1.07 | inhibition at 500 µM [9]: 79.2 ± 1.2% | Cytotoxicity study in B16F10 cells, % viability ([10]; 150 μM): 73.6% | Cytotoxicity study in B16F10 cells, % viability ([10]; 200 μM): 87.8% | Cytotoxicity study in B16F10 cells, % viability ([10]; 250 μM): 84.4% | Increase in the number of yellow wells compared to the reference level, TA100 ([11]; 0.5 mM, + S9): 0.78 | Increase in the number of yellow wells compared to the reference level, TA100 ([11]; 0.5 mM, without S9): 1.53 | Increase in the number of yellow wells compared to the reference level, TA100 ([11]; 1.0 mM, + S9): 0.64 | Increase in the number of yellow wells compared to the reference level, TA100 ([11]; 1.0 mM, without S9): 0.93 | Increase in the number of yellow wells compared to the reference level, TA100 ([11]; 2.0 mM, + S9): 0.31 | Increase in the number of yellow wells compared to the reference level, TA100 ([11]; 2.0 mM, without S9): 0.80

CCOC(=O)[C@H](Cc1ccccc1)NC(=O)/C=C/c1ccc(O)c(OC)c1 [N-[3-(4-hydroxy-3-methoxyphenyl)-1-oxo-2-propen-1-yl]-L-phenylalanine ethyl ester]
type of tyrosinase inhibition [12]: mixed type of inhibition | IC50 ([12]; read-out: IC50, tyrosinase inhibition): 185 ± 5 nM

CCCCCCCCCCCCOS(=O)(=O)[O-].[Na+] [SDS, sodium dodecyl sulphate]
IL-1α concentration in the culture medium ([13]; 42 h incubation, compounds as PEG400 solutions 26 mg/cm^2, SDS 5% aqueous): >250 pg/mL | tissue viability ([13]; compared to the negative control (PBS and PEG400), 5% aqueous SDS): 23.8%
